Experimental data from patent US11999964B2, “Synthetic mammalian signaling circuits for robust cell population control” (California Institute of Technology, priority 2020, dated 2024).

Assays:
Format in all cases: cell-based, Hamster
[1] = system: cheaters from the negative feedback condition; assay: AP1903 killing of cheaters from the negative feedback condition; conditions: 50 nM AP1903, two days, even in the presence of NAA
Excerpt: FIGS. 12A-12C depict non-limiting exemplary data showing the paradoxical circuit allows mutationally robust population control. (FIG. 12A) Cell lines evolved under paradoxical conditions are phenotypically different from cheaters evolved under negative feedback. Each dot represents one culture. Cells evolved under the negative feedback conditions form a tight cluster, which is fitted with a 2-D gaussian to show the 95 percentile (orange dashed ellipse). […] (FIG. 12B) Under paradoxical, but not negative feedback, conditions, mutations that reduce auxin sensing lead to apoptosis in cheaters (red inhibitory arrow), preventing unregulated growth and mutational escape. […] Cells were incubated with different levels of NAA for 6 hours, and then 50 nM of AP1903 was added (except in controls) for another two days. Confluencies were measured and normalized to the no AP1903 control (n=3).

mCherry-AID-Blast R = target: T1, mCherry-AID-Blast R (UniProt P93830+Q7XVM8, DEL133-229); assay: Auxin regulation of mCherry-AID-BlastR fluorescence in Receiver cells; conditions: Receiver CHO-K1 cells, two days of treatment, Michaelis-Menten fit; read-out: EC50, reduction of mCherry fluorescence
T1 construct: expressed in transfected cells; 'Receiver' line
T1 sequence (P93830 65-132 limits assumed, stated change not applied): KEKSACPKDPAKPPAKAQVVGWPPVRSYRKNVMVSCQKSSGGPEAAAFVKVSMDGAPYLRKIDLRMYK
T1 sequence (Q7XVM8 whole entry, stated change not applied): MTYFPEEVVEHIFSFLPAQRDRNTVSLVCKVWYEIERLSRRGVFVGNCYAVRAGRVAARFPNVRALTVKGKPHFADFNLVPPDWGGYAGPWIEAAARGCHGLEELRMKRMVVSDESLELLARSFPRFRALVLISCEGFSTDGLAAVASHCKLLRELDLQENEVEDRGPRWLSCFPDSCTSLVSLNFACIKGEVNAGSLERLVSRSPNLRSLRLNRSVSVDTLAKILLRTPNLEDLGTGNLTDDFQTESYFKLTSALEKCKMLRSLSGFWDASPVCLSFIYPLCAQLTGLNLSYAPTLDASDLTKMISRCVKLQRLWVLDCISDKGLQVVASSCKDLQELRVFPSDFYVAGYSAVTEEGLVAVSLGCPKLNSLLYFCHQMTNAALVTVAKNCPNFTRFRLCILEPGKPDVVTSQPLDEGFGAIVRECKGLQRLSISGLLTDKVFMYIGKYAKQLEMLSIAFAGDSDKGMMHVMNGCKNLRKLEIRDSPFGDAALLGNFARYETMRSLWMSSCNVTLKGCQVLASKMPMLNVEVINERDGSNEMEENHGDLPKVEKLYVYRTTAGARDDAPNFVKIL
T1 sequence (Q9WTX5 whole entry partner): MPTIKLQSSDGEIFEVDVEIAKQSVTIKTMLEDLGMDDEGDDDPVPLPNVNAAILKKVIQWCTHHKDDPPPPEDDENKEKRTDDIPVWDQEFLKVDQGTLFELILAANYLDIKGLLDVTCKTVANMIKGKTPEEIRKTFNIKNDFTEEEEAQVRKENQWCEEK
Excerpt: (§1) FIGS. 1A-1D depict non-limiting exemplary embodiments and data showing the plant hormone auxin allows private-channel mammalian cell-cell communication. […] Middle: Engineered cells that can send and receive the signal simultaneously can respond to their own population size. Right: coupling the sending-receiving function with cell survival in a negative feedback can enable population control. (FIG. 1B) Auxin Receiver cells constitutively express a fluorescent target fusion protein, mCherry-AID-BlastR, as well as the F-box protein osTIR1. […] The response of mCherry fluorescence to two different species of auxin (IAA and NAA) was measured after two days of treatment (dots). […] Cells were counted by flow cytometry (n=3, error bar=standard deviation). […]
To establish and characterize auxin regulation of mammalian cell growth, auxin sensing was coupled to drug resistance and fluorescence. Specifically, blasticidin S deaminase (Blast R), whose protein product is necessary for survival in the presence of blasticidin, was fused to AID and mCherry domains, allowing auxin-dependent degradation and fluorescent readout of protein concentration, respectively. […]
To fit the mCherry's response curve to auxin and population (FIG. 1C, FIGS. 3A and 3B; FIGS. 7A and 7B), it was assumed the log of fluorescence (F) follows an inverted Michaelis-Menten's equation as follow: […]

[2] = system: Receiver cell line (CHO-K1 cells); assay: Receiver cell survival with IAA and blasticidin; conditions: IAA added to media containing blasticidin; four days; dose-dependent
Excerpt: as §1
Flow cytometry by trypsinizing 0.25% trypsin-EDTA (GIBCO) for 1 min at room temperature. […] Cells were then filtered through a 40 μm cell strainer and analyzed by flow cytometry (MACSQuant VYB, Miltenyi or CytoFLEX, Beckman Coulter). […] All fluorescence data were acquired as the median value of the gated population. For counting cells, 1000 CountBright beads (Life Technologies) were spiked into the sample before filtering, gated out by their fluorescence in analysis and used to estimate cell number in each sample.

parental cells = assay: Parental cells cultured with IAA and blasticidin (pilot); conditions: cultured in the presence of IAA and blasticidin
Method: FIGS. 14A-14D depict non-limiting exemplary data showing simple negative feedback enables cell density-dependent killing. (FIGS. 14A-14B) Long-term culture traces under 50 μg/ml and 100 μg/ml blasticidin conditions. Experimental setups are the same as FIG. 11B. […] A cell line collected from the experiment described in (FIG. 14D) was cultured, in parallel with the parental line, with different IAA and blasticidin combinations for 4 days. Survival rates were normalized to the parental line, and each bar is from a triplet. […] Cells were seeded into a 24-well imaging plate with 50 μg/ml of blasticidin solely or with 100 μM IAA or IAM, and no cells survived the combined IAA and blasticidin treatment. Each trace reflects an average of 12 positions in a sample well.
First, resistance mutations occurred in separately maintained, long-term cultures, and therefore could not spread from one culture to another. […] While sensing mutations are likely responsible at least in part for the mutant growth advantage, their specific effects in a parental background was not characterized. […] However, as described herein, a paradoxical circuit designs provide robust population control.

CC[C@H](C(=O)N1CCCC[C@H]1C(=O)O[C@H](CCc1ccc(OC)c(OC)c1)c1cccc(OCC(=O)NCCNC(=O)COc2cccc([C@@H](CCc3ccc(OC)c(OC)c3)OC(=O)[C@@H]3CCCCN3C(=O)[C@@H](CC)c3cc(OC)c(OC)c(OC)c3)c2)c1)c1cc(OC)c(OC)c(OC)c1 [AP1903]
Effect of iCasp9 activation by AP1903 on cheaters [1]: kills cheaters

O=C(O)Cc1c[nH]c2ccccc12 [IAA, indole-3-acetic acid]
EC50 (mCherry-AID-Blast R): 0.11 µM
Effect on cell survival [2]: inhibit cell survival
Time to death of parental cells (parental cells): ≤ 3 days
